The source made the active and inactive calls. The calls are words filed in the database; no cut-off is given here.
Tests used:
[1] = Cmax in rat; type: ADME; details: in vivo
[2] = Half-life in rat; type: ADME; details: in vivo
[3] = Brain to plasma ratio in rat; type: ADME; details: read-out: BPR
Rattus norvegicus [4] = experiment: Protection against harmaline-induced tremor in rats at 10 mg/kg; type: functional, organism-based
Rattus norvegicus [5] = type: functional, organism-based; details: dose 10.0 mg/kg
Rattus norvegicus [6] = type: functional, organism-based; details: dose 3-30 mg/kg
Rattus norvegicus [7] = experiment: Protection against amphetamine-induced psycho-motor activity in rat at 1 to 10 mg/kg, po; type: functional, organism-based; details: dose 1-10 mg/kg
Rattus norvegicus [8] = species on record: Rattus norvegicus; experiment: Effect on sleep architecture of rats assessed as increase in slow wave sleep; type: functional, organism-based
Rattus norvegicus [9] = species on record: Rattus norvegicus; experiment: Effect on sleep architecture of rats assessed as decrease in rapid eye movement sleep early in sleep period; type: functional, organism-based
Rattus norvegicus [10] = species on record: Rattus norvegicus; experiment: Effect on sleep architecture of rats assessed as increase in rapid eye movement sleep late in sleep period; type: functional, organism-based
Canis familiaris [11] = experiment: Effect on blood pressure in dogs at 2 to 300 mg/kg, iv; type: toxicity, organism-based, Canis lupus familiaris; details: dog, in vivo, dose 2-300 mg/kg
Canis familiaris [12] = experiment: Effect on PR interval of heart in dogs at 2 to 300 mg/kg, iv; type: toxicity, organism-based, Canis lupus familiaris; details: dog, in vivo, dose 2-300 mg/kg
Canis familiaris [13] = experiment: Effect on QRS duration of heart in dogs at 2 to 300 mg/kg, iv; type: toxicity, organism-based, Canis lupus familiaris; details: dog, in vivo, dose 2-300 mg/kg
Canis familiaris [14] = experiment: Effect on QTc interval of heart in dogs at 2 to 300 mg/kg, iv; type: toxicity, organism-based, Canis lupus familiaris; details: dog, in vivo, dose 2-300 mg/kg
Canis familiaris [15] = experiment: Effect on core body temperature in dogs at 2 to 300 mg/kg, iv; type: toxicity, organism-based, Canis lupus familiaris; details: dog, in vivo, dose 2-300 mg/kg
Canis familiaris [16] = experiment: Effect on heart rate in dogs at 10 mg/kg, iv; type: toxicity, organism-based, Canis lupus familiaris; details: dog, in vivo
Canis familiaris [17] = experiment: Effect on QRS duration of heart in dogs at 10 mg/kg, iv; type: toxicity, organism-based, Canis lupus familiaris; details: dog, in vivo
Canis familiaris [18] = experiment: Effect on QTc interval of heart in dogs at 10 mg/kg, iv; type: toxicity, organism-based, Canis lupus familiaris; details: dog, in vivo
Rattus norvegicus [19] = experiment: Effect on neurobehavioral function in female rats at 30 mg/kg, po administered a single dose at 2 hrs; type: toxicity, organism-based; details: in vivo
Rattus norvegicus [20] = experiment: Effect on neurobehavioral function in female rats at 30 mg/kg, po administered a single dose at 24 hrs; type: toxicity, organism-based; details: in vivo
Rattus norvegicus [21] = experiment: Effect on neurobehavioral function in female rats assessed as increase in foot splay width at 15 mg/kg, po administered a single dose; type: toxicity, organism-based; details: in vivo
Rattus norvegicus [22] = experiment: Effect on neurobehavioral function in female rats at 30 to 3000 mg/kg, po; type: toxicity, organism-based; details: in vivo, dose 30-3000 mg/kg
Rattus norvegicus [23] = experiment: Effect on respiratory function in female rats assessed as increase in PenH at 300 to 2000 mg/kg, po; type: toxicity, organism-based; details: in vivo, dose 300-2000 mg/kg
Rattus norvegicus [24] = experiment: Effect on respiratory function in female rats assessed as increase in PenH at 30 mg/kg, po; type: toxicity, organism-based; details: in vivo
Rattus norvegicus [25] = experiment: Effect on respiratory function in male rats assessed as change in airway resistance at 6 mg/kg, iv; type: toxicity, organism-based; details: in vivo
[26] = Clearance in dog at 0.5 mg/kg, po; type: ADME, organism-based, Canis lupus familiaris; details: in vivo
[27] = Half-life in dog at 0.5 mg/kg, po; type: ADME, organism-based, Canis lupus familiaris; details: in vivo
[28] = Oral bioavailability in dog at 0.5 mg/kg; type: ADME, organism-based, Canis lupus familiaris; details: in vivo
[29] = Plasma concentration in male rats at 25 mg/kg, po at 2 hrs using 1% methylcellulose; type: ADME, organism-based; details: rat
[30] = Plasma concentration in male rats at 25 mg/kg, po at 2 hrs using 90% PEG400; type: ADME, organism-based; details: rat
[31] = Brain concentration in male rats at 25 mg/kg, po at 2 hrs using 1% methylcellulose; type: ADME, organism-based; details: rat, read-out: Drug uptake
[32] = Brain concentration in male rats at 25 mg/kg, po at 2 hrs using 90% PEG400; type: ADME, organism-based; details: rat, read-out: Drug uptake
CYP3A4 = CYP3A4 (Homo sapiens, UniProt P08684); experiment: Inhibition of recombinant human CYP3A4 in human liver microsomes at 1 uM relative to control; type: ADME
CYP3A5 = CYP3A5 (Homo sapiens, UniProt P20815); experiment: Inhibition of recombinant human CYP3A5 in human liver microsomes at 1 uM relative to control; type: ADME
[33] = Induction of CYP3A4 mRNA production in primary human hepatocytes at 10 uM relative to control; type: functional, Hepatocyte
[34] = biological target: T1, pregnane X receptor (PXR, NR1I2) (Homo sapiens, UniProt O75469); experiment: Activation of human pregnane X receptor at 10 uM relative to control; details: read-out: Activity
T1 sequence (O75469 whole entry): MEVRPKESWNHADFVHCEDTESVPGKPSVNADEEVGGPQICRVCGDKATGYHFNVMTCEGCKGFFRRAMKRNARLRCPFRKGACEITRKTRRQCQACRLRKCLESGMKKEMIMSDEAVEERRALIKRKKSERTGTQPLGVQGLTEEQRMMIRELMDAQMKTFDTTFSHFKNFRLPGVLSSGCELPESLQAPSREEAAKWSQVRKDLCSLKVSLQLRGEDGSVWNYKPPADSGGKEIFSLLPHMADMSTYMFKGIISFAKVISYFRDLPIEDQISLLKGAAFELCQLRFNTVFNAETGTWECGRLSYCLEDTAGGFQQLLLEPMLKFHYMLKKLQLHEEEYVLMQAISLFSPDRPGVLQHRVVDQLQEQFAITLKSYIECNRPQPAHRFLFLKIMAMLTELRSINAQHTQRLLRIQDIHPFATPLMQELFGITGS

Hepatocyte = experiment: Induction of […] mRNA production in primary human hepatocytes at 10 uM relative to control; type: functional, cell-based
[35] = Toxicity in female Sprague-Dawley rats at 10 to 1000 mg/kg, po assessed as effect on fertility; type: organism-based; details: rat, in vivo, dose 10-1000 mg/kg
[36] = Toxicity in female Sprague-Dawley rats at 10 to 1000 mg/kg, po; type: organism-based; details: rat, in vivo, dose 10-1000 mg/kg
[37] = Toxicity in Sprague-Dawley rats at 30 to 1000 mg/kg, po assessed as maternal toxicity; type: organism-based; details: rat, in vivo, dose 30-1000 mg/kg
[38] = Toxicity in Sprague-Dawley rats at 30 to 1000 mg/kg, po assessed as developmental toxicity; type: organism-based; details: rat, in vivo, dose 30-1000 mg/kg
[39] = Toxicity in Sprague-Dawley rats at 30 to 2000 mg/kg, po assessed as micronuclei induction in bone marrow; type: organism-based; details: rat, in vivo, dose 30-2000 mg/kg
[40] = Toxicity in Beagle dogs at 3 to 300 mg/kg, po measured by 10-day extrapolatory dose-range finding study; type: organism-based, Canis lupus familiaris; details: dog, in vivo, 240 h, dose 3-300 mg/kg
[41] = Toxicity in rabbits at 30 to 1000 mg/kg, po assessed as maternal toxicity; type: organism-based, Oryctolagus cuniculus; details: rabbit, in vivo, 672 h, dose 30-1000 mg/kg, time 4 weeks
[42] = Toxicity in rabbits at 30 to 1000 mg/kg, po assessed as developmental toxicity; type: organism-based, Oryctolagus cuniculus; details: rabbit, in vivo, dose 30-1000 mg/kg
[43] = Toxicity in rats at 10 to 1000 mg/kg, po assessed as developmental toxicity; type: organism-based; details: rat, in vivo, dose 10-1000 mg/kg
[44] = Tmax in rat; type: ADME; details: in vivo
[45] = AUClast in rat; type: ADME; set-up: time 0 - last; details: in vivo
Rattus norvegicus [46] = type: functional, organism-based; details: dose 100.0 mg/kg

CYP3A5, sequence (P20815 whole entry): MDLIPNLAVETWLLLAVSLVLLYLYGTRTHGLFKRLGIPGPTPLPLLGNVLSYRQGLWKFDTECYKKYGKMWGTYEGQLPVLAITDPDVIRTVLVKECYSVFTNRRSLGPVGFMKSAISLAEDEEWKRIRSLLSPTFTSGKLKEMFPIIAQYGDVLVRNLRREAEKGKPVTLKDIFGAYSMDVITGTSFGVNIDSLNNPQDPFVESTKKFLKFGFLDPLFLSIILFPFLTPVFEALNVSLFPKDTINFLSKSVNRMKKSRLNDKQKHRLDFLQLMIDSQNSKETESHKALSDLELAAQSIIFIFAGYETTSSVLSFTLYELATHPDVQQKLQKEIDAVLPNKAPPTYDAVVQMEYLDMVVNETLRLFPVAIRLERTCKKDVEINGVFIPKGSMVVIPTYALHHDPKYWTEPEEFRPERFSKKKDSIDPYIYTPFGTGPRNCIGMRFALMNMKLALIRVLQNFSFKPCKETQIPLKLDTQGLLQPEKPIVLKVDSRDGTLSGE
CYP3A4, sequence (P08684 whole entry): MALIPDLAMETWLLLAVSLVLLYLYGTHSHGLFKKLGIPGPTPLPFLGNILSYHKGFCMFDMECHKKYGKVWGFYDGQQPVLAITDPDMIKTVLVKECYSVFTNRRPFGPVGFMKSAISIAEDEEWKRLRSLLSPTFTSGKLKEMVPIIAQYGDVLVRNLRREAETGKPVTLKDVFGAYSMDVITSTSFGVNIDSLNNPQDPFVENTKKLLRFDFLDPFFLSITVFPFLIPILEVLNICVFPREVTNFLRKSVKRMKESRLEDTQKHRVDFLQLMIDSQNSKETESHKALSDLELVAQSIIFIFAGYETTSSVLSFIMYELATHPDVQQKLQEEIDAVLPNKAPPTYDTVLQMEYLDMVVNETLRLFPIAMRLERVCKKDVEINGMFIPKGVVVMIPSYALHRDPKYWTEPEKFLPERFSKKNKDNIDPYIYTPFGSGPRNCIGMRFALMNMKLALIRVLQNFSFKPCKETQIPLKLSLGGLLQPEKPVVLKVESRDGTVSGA

Structure (SMILES): N#Cc1ccc([C@@]2(C3CC3)c3cc(Cl)ccc3NC(=O)N2CC(F)(F)F)cc1
- Cmax [1]: 3 µM
- half-life [2]: 5.9 h
- Kp [3]: 1.1

Structure (SMILES): CC1(C)C[C@@H](CN2CCC(F)(CNC(=O)c3cc(Cl)cc(Cl)c3)CC2)CCO1
- Activity (Rattus norvegicus [4]): Active

Structure (SMILES): CC(C)c1ccc(CC(=O)N[C@H](C)c2ccc(OCC(F)(F)F)cn2)cc1 [SUVECALTAMIDE]
- Activity (Rattus norvegicus [5]): Active
- Activity (Rattus norvegicus [6]): Active
- Activity (Rattus norvegicus [7]): Active
- Activity (Rattus norvegicus [8]): Active
- Activity (Rattus norvegicus [9]): Active
- Activity (Rattus norvegicus [10]): Active
- Activity (Canis familiaris [11]): Non-Toxic
- Activity (Canis familiaris [12]): Non-Toxic
- Activity (Canis familiaris [13]): Non-Toxic
- Activity (Canis familiaris [14]): Non-Toxic
- Activity (Canis familiaris [15]): Non-Toxic
- Activity (Canis familiaris [16]): Non-Toxic
- Activity (Canis familiaris [17]): Non-Toxic
- Activity (Canis familiaris [18]): Non-Toxic
- Activity (Rattus norvegicus [19]): Non-Toxic
- Activity (Rattus norvegicus [20]): Non-Toxic
- Activity (Rattus norvegicus [21]): Toxic
- Activity (Rattus norvegicus [22]): Non-Toxic
- Activity (Rattus norvegicus [23]): Non-Toxic
- Activity (Rattus norvegicus [24]): Non-Toxic
- Activity (Rattus norvegicus [25]): Non-Toxic
- CL/F [26]: 0.4 mL/min/kg
- t1/2 [27]: 3.1 h
- bioavailability [28]: 47%
- concentration at 2 h [29]: 6.3 µM
- concentration at 2 h [30]: 3.3 µM
- concentration at 2 h [31]: 3.1 µM
- concentration at 2 h [32]: 1.8 µM
- inhibition at 1 µM (CYP3A4): > 80%
- inhibition at 1 µM (CYP3A5): > 80%
- Activity [33]: <=10%
- activity at 10 µM [34]: ≤ 34%
- Activity (Hepatocyte): Active
- NOAEL [35]: ≥ 1000 mg/kg/day
- NOAEL [36]: 100 mg/kg/day
- Activity [37]: Toxic
- Activity [38]: Toxic
- Activity [39]: Non-Toxic
- Activity [40]: Non-Toxic
- Activity [41]: Toxic
- Activity [42]: Toxic
- Activity [43]: Non-Toxic

Structure (SMILES): C[C@@H](NC(=O)Cc1ccc(C2CC2)cc1)c1ccc(OCC(F)(F)F)cn1
- Tmax [44]: 0.3 h
- Cmax [1]: 7.5 µM
- AUC(0-t) [45]: 30 µM·h
- half-life [2]: 1.5 h
- Kp [3]: 0.27

Structure (SMILES): CCC1(C)CC(=O)NC1=O (configuration not stated)
- Activity (Rattus norvegicus [46]): Active

Source: ChEMBL document CHEMBL5050846 (2020)
